Paper PMC8653149, “Cyclic Analogs of Desferrioxamine E Siderophore for ^68Ga Nuclear Imaging: Coordination Chemistry and Biological Activity in Staphylococcus aureus” (Inorganic Chemistry, 2021)

Legend:
[1] = Distribution coefficient (logD) of ^68Ga-labeled ligands between octanol and PBS
[2] = Ligand–ligand competition UV–vis titrations of Fe(III) complexes vs EDTA; format: physicochemical; settings: [L] = 1.5·10^-4 M, M:L ratio 1:1, pH = 7, T = 25°C, I = 0.1 M NaClO4
Protocol: In this series of experiments, the stock solution of FOX ligand was divided into various batches followed by metal addition with a constant total volume of 2 mL, [Fe(III)] = 2 × 10^–4, and a metal-to-ligand molar ratio of 1:1. The EDTA ligand was added to a previously prepared series of solutions in increasing concentration, from a 0 to 10 molar excess for FOX 2-5 and from a 0 to 1.2 molar excess for the rest of the derivatives. pH was adjusted to ∼7 with the NaOH solution. After preparation, each solution was allowed to equilibrate for 3–7 days, depending on the investigated complex. Changes were observed between the collected spectra, and they were measured consequently until no further changes were present. The UV–vis spectra were recorded (Figure S4), and competition data were refined to obtain the overall Fe(III)-FOXE derivative binding constant (logβFe(III)L). The protonation constants of FOXE derivatives (Table S4) and formation constants for Fe(III)-FOXE derivative complex species (Table S5) were treated as fixed parameters in data analysis.
The spectrophotometric competition experiments with EDTA
The spectrophotometric competition experiments with EDTA were performed at fixed pH 7.0,
to compete effectively with the tris-hydroxamates for ferric ion at intermediate pH values (5-8)
if an excess of EDTA is used. The competition equilibrium is described by equations (S5) and
Fe IIIL  EDTA K  FeIII EDTA  L (S5)
[FeIII L][EDTA]  Fe(III)L (S6)
The competition data were refined to obtain the overall Fe(III)-FOX binding constant logβ FeL
(Table S7) for analogs using a model involving two ligands and one metal.
The concentration of Fe(III)-analog complex for each derivative, [FeL], was calculated from
the absorbance maximum at around 420 nm (where FeL is the only light-absorbing species) and
previously determined extinction coefficients. The concentrations of other species in equation
(S6) were calculated from mass balance equations using the experimental pH values:
[Fe]tot =  FeL[FeL] +  FeEDTA[FeEDTA]
[L]tot =  FeL[FeL] +  L[L]
[EDTA]tot =  FeEDTA[FeEDTA] +  EDTA[EDTA]
a is the usual Ringbom’s coefficient.

[3] = Fe(III) complex stability constants by potentiometric and pH-dependent UV–vis titrations; format: physicochemical; settings: I = 0.1 M NaClO4; for logβ[FeL] / logβ[FeHL]+ / pKNHOH of Fe(III) complex: M:L 1:1, T = 25°C; for logβFe(III)L: potentiometric [L] = 1 × 10^–3 M and UV–vis 5 × 10^–5 M, M:L 1:1, T = 25 °C
[4] = Cyclic voltammetry of Fe(III)-FOXE derivative complexes (redox potential, Fe(II) stability constants); format: physicochemical; settings: for E1/2 vs NHE: CV; for E1/2 vs NHE / logβFe(II): [L] = 2 × 10^–3 M, M:L 1:1, pH = 7, T = 25 °C; for E°complex: [Fe(III)] = 2·10^-3 M, M:L ratio 1:1, pH = 7, T = 25°C, I = 0.1M NaClO4, glass-carbon working electrode; for logβFe(II): calculated from CV measurement
Protocol: Redox chemistry of Fe(III) species was determined in cyclic voltammetry (CV) assays. […] We have obtained quasireversible voltammograms for Fe(III)-FOXE analog complexes (Figure S8), with ΔE ranging from −369 mV to −470 mV. The values of E1/2 (Table 1) were recalculated vs normal hydrogen electrode (NHE). To ensure that only fully hexacoordinated complexes [FeL] were characterized, experiments were carried out at fixed pH = 7 where this form is dominating in solution. Higher strength of the complex (larger pM value) correlates to lower redox potential. This behavior was in agreement with previously reported data[61],[62] for similar complexation systems.
Redox potentials for Fe(III)-FOXE derivatives were determined using cyclic voltammetry with a VA 797 Computrace Voltammeter (Metrohm) equipped with glass-carbon, AgCl/Cl, and platinum wire electrodes. Concentration of the measured samples was [Fe(III)] = 2 × 10^–3, M:L ratio 1:1, at 25.0 ± 0.1 °C; pH 7.0 was provided by addition of a suitable amount of NaOH under control of a pH meter. The scan range was from −0.3 V to −1 V in a cycle: Fe(III)–FOX [drawing 1] Fe(II)–FOX [drawing 2] Fe(III)–FOX. Received data (Figure S8) was standardized for the NHE electrode. The electrochemical data were refined to obtain the overall Fe(II)-FOXE derivative binding constant (logβFe(II)L^–) by implementing the Nernst equation (S1).
Figure S8. CV voltammograms used to calculate (logβ) constants for studied complexes a with
Fe(II) ions: a) FOX 2-2, b) Fe-FOX 2-3, c) FOX 2-4, d) FOX 2-5, e) FOX 3-5
aConditions: [Fe(III)] = 2·10^-3 M, M:L ratio 1:1, pH = 7, T = 25°C, I = 0.1M NaClO 4 on glass-carbon working
For each complex the stability constant for Fe(II)-analog was calculated using eq. S10
E complex ― Eaq = ―59.15log (βII) (S10)
Table S9. E 1/2 and stability (logβ) constants for studied complexes with Fe(II) ions a […]

[5] = Ligand protonation constants by potentiometric titration; format: physicochemical; settings: [L] = 1·10^-3 M, T = 25°C, I = 0.1 M NaClO4
Protocol: Potentiometric titrations were performed using an automatic titrator system Titrando 905 (Metrohm) equipped with a 800 Dosino dosing unit and a microburet with a volume of 2 mL. A combined glass electrode was calibrated each day for hydrogen ion concentration by 0.1 M HClO4 with CO2-free 0.1 M NaOH solutions. A stream of high purity grade argon, presaturated with water vapor, passed over the surface of the solution cell, filled with 3 mL of the studied solution. For each system, a minimum of four independent titrations was performed. The purity of ligand and accurate concentration of ligand solution were determined before each experiment with the Gran method[68] by potentiometric titration of the 3 mL sample of the ligand, with [L] ∼ 1 × 10^–3 M. In separate potentiometric titrations, the metal-to-ligand ratio was 1:1, and the concentration of metal was 2 × 10^–3 M. The potentiometric data were refined to obtain the overall Fe(III)-FOXE and Ga(III)-FOXE derivative binding constants (logβFe(III)L, logβGa(III)L). […]
Ligand’s protonation constants
The acid-base properties of investigated ligands were studied by potentiometric technique. The optimized logβ values defined by equations (S1) and (S2) were calculated using […] 1 […]
or Hyperquad 20062 programs (Table S4). For the sake of simplicity charges are omitted in all chemical equilibria given here.
Table S4. Protonation (logβ H) constants for studied ligandsa […]
aConstants determined from potentiometric titrations. Conditions: [L] = 1·10^-3 M, T = 25°C, I = 0.1 M NaClO 4, b Ref 3 […]

[6] = UV-Vis pH-dependent titrations, 1·10^-4 M
[7] = potentiometric, [L] = 1·10^-3 M

Row | SMILES | logD at 20 min [1] | logβ[FeL] [2] | logβ[FeL] [3, 6] | E1/2 vs NHE [4] | E°complex [4] [mV] | logβFe(II) [4] | protonation constant logβ, H2L + H+ ↔ H3L [5] | protonation constant logβ, HL + H+ ↔ H2L [5] | protonation constant logβ, L + H+ ↔ HL [5] | logβ[FeHL]+ [3, 6] | logβFe(III)L [3] | logβ[FeL] [3, 7] | pKNHOH of Fe(III) complex [3, 7] | pKNHOH of Fe(III) complex [3, 6]
1 | O=C1CCCCCN(O)C(=O)CCNC(=O)CCCCCN(O)C(=O)CCNC(=O)CCCCCN(O)C(=O)CCN1 [FOX 2-5] | -1.9 | 28.81 (1) | 31.32 (8) | –452 mv | -452 | 11.29 | 26.53(1) | 19.09(1) | 9.86(1) |  |  |  |  | 
2 | O=C1CCN(O)C(=O)CCNC(=O)CCN(O)C(=O)CCNC(=O)CCN(O)C(=O)CCN1 [FOX 2-2] | -2.66 | 26.57 (4) |  | –369 mv | -369 | 7.48 | 27.62(2) | 19.28(1) | 9.97(1) | 30.64 (6) | 25.92(8) | 25.92 (8) | 4.72 | 
3 | O=C1CCCCCN(O)C(=O)CCCNC(=O)CCCCCN(O)C(=O)CCCNC(=O)CCCCCN(O)C(=O)CCCN1 [FOX 3-5] | -1.57 | 28.38 (1) | 28.59 (3) | –416 mv | -416 | 8.48 | 27.79(1) | 19.53(1) | 10.19(1) |  |  | 28.81 (1) | 2.32 | 2.54
4 | O=C1CCCN(O)C(=O)CCNC(=O)CCCN(O)C(=O)CCNC(=O)CCCN(O)C(=O)CCN1 [FOX 2-3] | -2.96 | 26.55 (3) | 26.70 (9) | –432 mv | -432 | 7.54 | 27.71(1) | 19.27(1) | 9.94(1) | 30.44 (5) | 27.22(2) | 27.22 (2) | 3.22 | 3.74
5 | O=C1CCCCN(O)C(=O)CCNC(=O)CCCCN(O)C(=O)CCNC(=O)CCCCN(O)C(=O)CCN1 [FOX 2-4] | -3.02 | 27.13 (1) | 28.71 (7) | –426 mv | -426 | 9.12 | 27.64(1) | 19.21(1) | 9.93(1) | 30.83 (4) | 28.71(7) |  |  | 2.12
